Experimental data as given in patent US20260028326A1, “COMPOUND BASED ON ISOINDOLINE-SUBSTITUTED GLUTARIMIDE BACKBONE AND USE THEREOF” (GLUETACS THERAPEUTICS (SHANGHAI) CO., LTD., priority 2022, published 2026).

biological target: human Cereblon WT GST-tagged protein (Homo sapiens (Human), UniProt Q96SW2); assay: CRBN-binding affinity, HTRF (CEREBLON BINDING kit)
Experimental: The CEREBLON BINDING kits (specification: 10,000 tests; product number: Catalog #64BDCRBNPEH; CISBIO company) was used to determine the CRBN binding ability of the compounds to be tested through a HTRF method (homogeneous time-resolved fluorescence). The specific methods are as follows: • 1. […] Then, 2.5 μL of human Cereblon WT GST-tagged protein solution was added to each well. Finally, 5 μL of the thoroughly mixed Thalidomide-Re reagent and GST Eu antibody working solution were added to each of the aforementioned wells. […] The blank control wells were sequentially added with 2.5 μL of diluent #9 (1×) solution, 2.5 μL of PROTAC binding buffer, and 5 μL of thoroughly mixed Thalidomide-Re reagent and GST Eu antibody working solution. • 4.
The corresponding CRBN binding inhibition rate was calculated using the following method: […]

human Cereblon WT GST-tagged protein, sequence (Q96SW2 whole entry): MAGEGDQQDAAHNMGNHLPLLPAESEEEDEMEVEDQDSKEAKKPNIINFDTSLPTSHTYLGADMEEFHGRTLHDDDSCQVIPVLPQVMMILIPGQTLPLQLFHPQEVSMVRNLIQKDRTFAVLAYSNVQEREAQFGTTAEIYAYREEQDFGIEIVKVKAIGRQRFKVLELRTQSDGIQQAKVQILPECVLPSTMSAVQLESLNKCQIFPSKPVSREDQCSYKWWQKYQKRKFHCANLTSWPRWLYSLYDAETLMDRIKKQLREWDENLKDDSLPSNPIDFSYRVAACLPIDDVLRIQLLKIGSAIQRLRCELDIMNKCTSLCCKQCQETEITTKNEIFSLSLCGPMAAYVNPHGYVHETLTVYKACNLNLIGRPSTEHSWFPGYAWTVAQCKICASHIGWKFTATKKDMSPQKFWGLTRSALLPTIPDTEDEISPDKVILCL

How did the IC50 turn out when `CC1(C)CCC(C(=O)N2C3CC2CN(C(=O)c2ccc4c(c2)CN(C2CCC(=O)NC2=O)C4=O)C3)=C(c2ccc(Cl)cc2)C1` (stereo not shown) [GT-05661, 3-(5-(6-(4′-chloro-5,5-dimethyl-3,4,5,6-tetrahydro-[1,1′-biphenyl]-2-carbonyl)-3,6-diazabicyclo[3.1.1]heptane-3-carbonyl)-1-oxoisoindolin-2-yl)piperidine-2,6-dione] was run?
Its IC50 is 0.96 µM.

For `CC1(C)CCC(C(=O)N2CC3CCC2CN3C(=O)c2ccc3c(c2)CN(C2CCC(=O)NC2=O)C3=O)=C(c2ccc(Cl)cc2)C1` (stereo not shown) [GT-05663, 3-(5-(5-(4′-chloro-5,5-dimethyl-3,4,5,6-tetrahydro-[1,1′-biphenyl]-2-carbonyl)-2,5-diazabicyclo[2.2.2]octane-2-carbonyl)-1-oxoisoindolin-2-yl)piperidine-2,6-dione], which IC50 is on record?
Its IC50 is 1.09 µM.

`O=C1CCC(N2Cc3cc(C(=O)N4CC5(CCN(Cc6ccccc6-c6ccc(Cl)cc6)CC5)C4)ccc3C2=O)C(=O)N1` (stereo not shown) [GT-05641, 3-(5-(7-((4′-chloro-[1,1′-biphenyl]-2-yl)methyl)-2,7-diazaspiro[3.5]nonane-2-carbonyl)-1-oxoisoindolin-2-yl)piperidine-2,6-dione] was tested. Which IC50 did it give?
The IC50 was 1.48 µM.

Which IC50 does the source give for `O=C1CCC(N2Cc3cc(CN4CC5(C4)CN(C(=O)c4ccccc4-c4ccc(Cl)cc4)C5)ccc3C2=O)C(=O)N1` (stereo not shown) [GT-05708, 3-(5-((6-(4′-chloro-[1,1′-biphenyl]-2-carbonyl)-2,6-diazaspiro[3.3]heptan-2-yl)methyl)-1-oxoisoindolin-2-yl)piperidine-2,6-dione] here?
Its IC50 is 0.55 µM.

`CC1(C)CCC(CN2CCC3(CC2)CN(C(=O)c2ccc4c(c2)CN(C2CCC(=O)NC2=O)C4=O)C3)=C(c2ccc(F)cc2)C1` (stereo not shown) [GT-05507, 3-(5-(7-((4′-fluoro-5,5-dimethyl-3,4,5,6-tetrahydro-[1,1′-biphenyl]-2-yl)methyl)-2,7-diazaspiro[3.5]nonane-2-carbonyl)-1-oxoisoindolin-2-yl)piperidine-2,6-dione] was tested. Which IC50 did it give?
Its IC50 is 1.24 µM.

With `CC1(C)CCC(CN2C3CC2CN(c2ccc4c(c2)C(=O)N(C2CCC(=O)NC2=O)C4=O)C3)=C(c2ccc(F)cc2)C1` (stereo not shown) [GT-05387, 2-(2,6-dioxopiperidin-3-yl)-5-(6-((4′-fluoro-5,5-dimethyl-3,4,5,6-tetrahydro-[1,1′-biphenyl]-2-yl)methyl)-3,6-diazabicyclo[3.1.1]heptan-3-yl)isoindoline-1,3-dione] as the compound, how does the IC50 read?
The IC50 was 0.81 µM.

With `O=C1CCC(N2Cc3c(CN4CCN(C(=O)c5ccccc5-c5ccc(Cl)cc5)CC4)cccc3C2=O)C(=O)N1` (stereo not shown) [GT-05701, 3-(4-((4-(4′-chloro-[1,1′-biphenyl]-2-carbonyl)piperazin-1-yl)methyl)-1-oxoisoindolin-2-yl)piperidine-2,6-dione] as the compound, how does the IC50 read?
The IC50 was 1.8 µM.

`O=C1CCC(N2C(=O)c3ccc(N4CC5CC(C4)N5Cc4ccccc4-c4ccc(Cl)cc4)cc3C2=O)C(=O)N1` (stereo not shown) [GT-05373, 5-(6-((4′-chloro-[1,1′-biphenyl]-2-yl)methyl)-3,6-diazabicyclo[3.1.1]heptan-3-yl)-2-(2,6-dioxopiperidin-3-yl)isoindoline-1,3-dione] was tested. Which IC50 did it give?
Its IC50 is 1.49 µM.

`O=C1CCC(N2C(=O)c3ccc(CN4CCN(Cc5ccncc5-c5ccc(Cl)cc5)CC4)cc3C2=O)C(=O)N1` (stereo not shown) [GT-05731, 5-((4-((3-(4-chlorophenyl)pyridin-4-yl)methyl)piperazin-1-yl)methyl)-2-(2,6-dioxopiperidin-3-yl)isoindoline-1,3-dione] was tested. Which IC50 did it give?
The IC50 was 1.65 µM.

`O=C1CCC(N2Cc3cc(CN4CCN(C(=O)c5ccccc5-c5ccc(Cl)cc5)CC4)cc(F)c3C2=O)C(=O)N1` (stereo not shown) [GT-05700, 3-(5-((4-(4′-chloro-[1,1′-biphenyl]-2-carbonyl)piperazin-1-yl)methyl)-7-fluoro-1-oxoisoindolin-2-yl)piperidine-2,6-dione] was tested. Which IC50 did it give?
Its IC50 is 1.22 µM.

For `CC1(C)CCC(CN2CC3CCC(C2)N3Cc2ccc3c(c2)C(=O)N(C2CCC(=O)NC2=O)C3)=C(c2ccc(Cl)cc2)C1` (stereo not shown) [GT-05459, 3-(6-((3-((4′-chloro-5,5-dimethyl-3,4,5,6-tetrahydro-[1,1′-biphenyl]-2-yl)methyl)-3,8-diazabicyclo[3.2.1]octan-8-yl)methyl)-1-oxoisoindolin-2-yl)piperidine-2,6-dione], which IC50 is on record?
Its IC50 is 1.12 µM.

`O=C1CCC(N2Cc3cc(CN4C5CC4CN(Cc4ccccc4-c4ccc(Cl)cc4)C5)cc(F)c3C2=O)C(=O)N1` (stereo not shown) [GT-05610, 3-(5-((3-((4′-chloro-[1,1′-biphenyl]-2-yl)methyl)-3,6-diazabicyclo[3.1.1]heptan-6-yl)methyl)-7-fluoro-1-oxoisoindolin-2-yl)piperidine-2,6-dione] was tested. Which IC50 did it give?
Its IC50 is 0.64 µM.

`O=C1CCC(N2Cc3cc(NC4CN(Cc5ccccc5-c5ccc(Cl)cc5)C4)c(F)cc3C2=O)C(=O)N1` (stereo not shown) [GT-04204, 3-(5-((1-((4′-chloro-[1,1′-biphenyl]-2-yl)methyl)azetidin-3-yl)amino)-6-fluoro-1-oxoisoindolin-2-yl)piperidine-2,6-dione] was tested. Which IC50 did it give?
The IC50 was 0.52 µM.

Which IC50 does the source give for `CC1(C)CCC(C(=O)N2CC3CCC(C2)N3Cc2ccc3c(c2)CN(C2CCC(=O)NC2=O)C3=O)=C(c2ccc(F)cc2)C1` (stereo not shown) [GT-05516, 3-(5-((3-(4′-fluoro-5,5-dimethyl-3,4,5,6-tetrahydro-[1,1′-biphenyl]-2-carbonyl)-3,8-diazabicyclo[3.2.1]octan-8-yl)methyl)-1-oxoisoindolin-2-yl)piperidine-2,6-dione] here?
The IC50 was 0.6 µM.

Which IC50 does the source give for `CC1(C)CCC(CN2CC3CCC(C2)N3C(=O)c2ccc3c(c2)CN(C2CCC(=O)NC2=O)C3=O)=C(c2ccc(F)cc2)C1` (stereo not shown) [GT-05451, 3-(5-(3-((4′-fluoro-5,5-dimethyl-3,4,5,6-tetrahydro-[1,1′-biphenyl]-2-yl)methyl)-3,8-diazabicyclo[3.2.1]octane-8-carbonyl)-1-oxoisoindolin-2-yl)piperidine-2,6-dione] here?
Its IC50 is 1.16 µM.

Which IC50 does the source give for `O=C1CCC(N2Cc3cc(C(=O)N4CCN(C(=O)C5=C(c6ccc(F)cc6)CCCC5)CC4)ccc3C2=O)C(=O)N1` (stereo not shown) [GT-05448, 3-(5-(4-(4′-fluoro-3,4,5,6-tetrahydro-[1,1′-biphenyl]-2-carbonyl)piperazine-1-carbonyl)-1-oxoisoindolin-2-yl)piperidine-2,6-dione] here?
Its IC50 is 1.39 µM.

Which IC50 does the source give for `O=C1CCC(N2C(=O)c3ccc(CN4CCN(C(=O)C5=C(c6ccc(F)cc6)CCCC5)CC4)cc3C2=O)C(=O)N1` (stereo not shown) [GT-05468, 2-(2,6-dioxopiperidin-3-yl)-5-((4-(4′-fluoro-3,4,5,6-tetrahydro-[1,1′-biphenyl]-2-carbonyl)piperazin-1-yl)methyl)isoindoline-1,3-dione] here?
Its IC50 is 1.5 µM.

How did the IC50 turn out when `CC1(C)CCC(CN2C3CC2CN(Cc2ccc4c(c2)CN(C2CCC(=O)NC2=O)C4=O)C3)=C(c2ccc(F)cc2)C1` (stereo not shown) [GT-05509, 3-(5-((6-((4′-fluoro-5,5-dimethyl-3,4,5,6-tetrahydro-[1,1′-biphenyl]-2-yl)methyl)-3,6-diazabicyclo[3.1.1]heptan-3-yl)methyl)-1-oxoisoindolin-2-yl)piperidine-2,6-dione] was run?
Its IC50 is 0.25 µM.

How did the IC50 turn out when `CC1(C)CCC(CN2CC3CN(C(=O)c4ccc5c(c4)CN(C4CCC(=O)NC4=O)C5=O)CC3C2)=C(c2ccc(F)cc2)C1` (stereo not shown) [GT-05447, 3-(5-(5-((4′-fluoro-5,5-dimethyl-3,4,5,6-tetrahydro-[1,1′-biphenyl]-2-yl)methyl)octahydropyrrolo[3,4-c]pyrrole-2-carbonyl)-1-oxoisoindolin-2-yl)piperidine-2,6-dione] was run?
The IC50 was 1.15 µM.
